Publication PMC5814047, “Peptidic inhibitors of insulin-degrading enzyme with potential for dermatological applications discovered via phage display” (PLoS ONE, 2018)
pIC50, pKi: −log10 of the molar value. Where “and” joins values, the source holds several entries; their conditions need not be identical. Equal entries are not always repeated. Where two headings read alike, the source gives them in different places. Bridge positions count the residues as written; N and C are the ends. Ends that are not written are not given here. Peptide text beside a SMILES is read from it.

Columns and labels:
IDE = target: T1, IDE (Homo sapiens, UniProt P14735); experiment: Vulnerability of peptides to degradation by IDE: 0 vs 4 h pre-incubation, then FRET1 assay; type: biochemical; conditions: for pKi: Cheng-Prusoff from IC50, FRET1 KM 10 uM, substrate 5 uM; for remaining activity at 0.12207 µM / remaining activity at 0.488281 µM / remaining activity at 1.95312 µM / remaining activity at 7.8125 µM / remaining activity at 31.25 µM / remaining activity at 125 µM / remaining activity at 500 µM: 4 h, relative to DMSO-only controls, read-out: Percent Activity (normalized initial velocity of FRET1 hydrolysis); for remaining activity at 0.12207 µM: Cmpd 0.12207 uM; for remaining activity at 0.488281 µM: Cmpd 0.488281 uM; for remaining activity at 1.95312 µM: Cmpd 1.95312 uM; for remaining activity at 7.8125 µM: Cmpd 7.8125 uM; for remaining activity at 31.25 µM: Cmpd 31.25 uM; for remaining activity at 125 µM: Cmpd 125 uM; for remaining activity at 500 µM: Cmpd 500 uM; for pIC50: FRET1 assay
T1 construct: made in house; host or cells: bacteria
T1 sequence (P14735 1-1019): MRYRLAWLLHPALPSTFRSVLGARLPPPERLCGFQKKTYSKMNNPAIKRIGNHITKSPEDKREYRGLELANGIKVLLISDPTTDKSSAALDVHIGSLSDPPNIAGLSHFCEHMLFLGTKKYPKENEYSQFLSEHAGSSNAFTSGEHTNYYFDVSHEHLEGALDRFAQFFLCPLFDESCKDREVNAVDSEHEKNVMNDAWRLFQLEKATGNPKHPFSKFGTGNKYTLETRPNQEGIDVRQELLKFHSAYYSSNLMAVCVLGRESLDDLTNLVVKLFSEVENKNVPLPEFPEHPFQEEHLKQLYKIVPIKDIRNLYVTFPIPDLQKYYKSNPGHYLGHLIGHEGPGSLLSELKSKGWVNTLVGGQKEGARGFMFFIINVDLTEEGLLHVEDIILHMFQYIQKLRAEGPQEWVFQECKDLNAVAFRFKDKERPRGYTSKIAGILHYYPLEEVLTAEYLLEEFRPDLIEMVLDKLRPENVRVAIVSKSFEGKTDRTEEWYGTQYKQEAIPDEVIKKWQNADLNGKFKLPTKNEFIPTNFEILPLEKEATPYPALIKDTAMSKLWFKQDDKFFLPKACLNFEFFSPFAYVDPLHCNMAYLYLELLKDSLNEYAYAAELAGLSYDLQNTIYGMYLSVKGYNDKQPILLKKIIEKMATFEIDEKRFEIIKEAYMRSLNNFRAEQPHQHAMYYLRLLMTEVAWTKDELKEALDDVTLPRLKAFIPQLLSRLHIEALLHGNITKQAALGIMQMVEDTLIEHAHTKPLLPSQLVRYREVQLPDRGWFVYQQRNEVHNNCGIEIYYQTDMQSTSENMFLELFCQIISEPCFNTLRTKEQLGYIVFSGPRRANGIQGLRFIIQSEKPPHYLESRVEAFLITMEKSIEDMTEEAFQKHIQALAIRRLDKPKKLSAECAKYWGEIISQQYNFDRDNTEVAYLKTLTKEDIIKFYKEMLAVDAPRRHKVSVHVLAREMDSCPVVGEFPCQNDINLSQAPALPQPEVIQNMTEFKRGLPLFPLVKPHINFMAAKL
Description: IDE activity was quantified by monitoring the degradation of Mca-[…](Dnp) (FRET1, 5 μM), fluoresceinated and biotinylated amyloid ß-protein (FAßB; 500 nM) or recombinant human insulin (50 nM) in PBS supplemented with 0.05% BSA. […] In vitro activity assays incorporated recombinant human IDE (1 nM) purified from bacteria. For quantitation of insulin degradation in primary murine skin fibroblasts, cells (1 x 10^5/well) were plated in 96-well plates and maintained in DMEM supplemented with 10% fetal bovine serum (FBS), 2mM glutamine, penicillin and streptomycin. After addition of insulin (10 nM or 100 nM), samples of conditioned medium were removed daily and quickly frozen, then insulin levels were quantified in parallel by ELISA according to manufacturer’s recommendations (Crystal Chem, Downers Grove, IL, USA). Assessment of the activity of P12-3A against a variety of matrix-metalloproteases was conducted using the Matrix Metalloproteinase (MMP) Inhibitor Profiling Kit, Fluorometric RED (Enzo Life Sciences, Inc., Farmingdale, NY, USA) according to manufacturer’s recommendations using the broad-spectrum MMP inhibitor, NNGH, as a positive control.

[1] = tested on: hydroxyproline secreted by primary murine skin fibroblasts; experiment: Hydroxyproline secretion into medium; type: cell-based
Description: Insulin promotes wound healing and overall skin health by affecting a number of processes, including cell proliferation, cell migration, and the production and secretion of ECM components, particularly type I collagen. We therefore assessed the ability of P12-3A to influence these processes in cultured skin fibroblasts and keratinocytes. To that end, primary mouse skin fibroblasts were grown for 4 d in multiple concentrations of insulin in the presence or absence of P12-3A, and insulin concentration over time was monitored by ELISA. […] Finally, the effects of P12-3A on collagen production in were assessed at both the transcriptional and the posttranslational level in confluent monolayers of fibroblasts. After 4 d of treatment with P12-3A (100 μM), mRNA levels for the major form of collagen, alpha-1 type I collagen (COL1A1), were quantified by RT-PCR and found to be increased to ~2.6 times the levels of untreated cells (Fig 4C). To assess overall levels of collagen production and secretion, we quantified levels of hydroxyproline, a modified amino acid present almost exclusively in collagen proteins. […] Western blotting also confirmed that mature, cell-associated collagen levels were increased in the presence of P12-3A (Fig 4E).
Fig 4 Effects of P12-3A on cultured skin cells. A, Insulin concentrations as a function of time in logarithmically growing primary murine skin fibroblasts in the absence or presence of P12-3A (100 μM). […] Data are mean ± SEM of 4 independent replications. *P<0.05, **P<0.01. B, Proliferation of cells in the absence or presence of P12-3A (100 μM). Data are mean ± SEM of 6 independent replications. […] C,D,E, P12-3A (100 μM) potentiates insulin-induced collagen production in skin fibroblasts. Collagen production was assessed by COL1A1 mRNA levels (C), levels of hydroxyproline secreted into the medium (D), and cell-associated mature alpha-1 type I collagen levels detected by Western blotting (E). Data are mean ± SD of 4 independent replications. *P<0.05, **P<0.01. […] Migration of HaCaT cells 48 h after induction of a scratch wound in the presence of the indicated quantities of insulin and/or P12-3A (100 μM). Data are mean ± SEM of 6 independent replications. *P<0.05, **P<0.01.
For quantitation of hydroxyproline secretion by primary murine skin fibroblasts, cells (1 x 10^5/well) were plated in 24-well plates DMEM supplemented with 10% FBS, 2mM glutamine, penicillin, streptomycin and 100 nM insulin, in the absence or presence of 100 μM P12-3A. After incubation for 4 days, the conditioned medium was removed, centrifuged at 1000 x g for 10 min to remove cellular debris, and hydroxyproline levels were quantified using the Hydroxyproline Assay Kit according to manufacturer’s recommendations (Sigma-Aldrich, St. Louis, MO, USA).

[2] = 4-hr incubation, individual runs
[3] = 4-hr incubation, individual replicates, read-out: IC50s
[4] = 4-hr incubation, mean of 2 replicates, read-out: IC50s, Mean
[5] = 0-hr incubation (immediately after combining enzyme and peptide), individual runs, read-out: IC50s

WSPISGKFFQRF [P12-4]
pKi (IDE; 4-hr incubation): 3.59
remaining activity at 0.12207 µM (IDE; [2]): 89.9%
remaining activity at 0.488281 µM (IDE; [2]): 96.1%
remaining activity at 1.95312 µM (IDE; [2]): 86.6%
remaining activity at 7.8125 µM (IDE; [2]): 80.4%
remaining activity at 31.25 µM (IDE; [2]): 84.9%
remaining activity at 125 µM (IDE; [2]): 75.6%
remaining activity at 500 µM (IDE; [2]): 30.5%
pIC50 (IDE; [3]): 3.40 and 3.42
pIC50 (IDE; [4]): 3.41

VHWDFRQWWQPS-NH2 [P12-1A]
pKi (IDE; 4-hr incubation): 4.21
remaining activity at 0.12207 µM (IDE; [2]): 79.1%
remaining activity at 0.488281 µM (IDE; [2]): 75%
remaining activity at 1.95312 µM (IDE; [2]): 59.1%
remaining activity at 7.8125 µM (IDE; [2]): 50.1%
remaining activity at 31.25 µM (IDE; [2]): 33.7%
remaining activity at 125 µM (IDE; [2]): 12.7%
remaining activity at 500 µM (IDE; [2]): 21.4%
pIC50 (IDE; [5]): 5.07
pIC50 (IDE; [3]): 4.02 and 4.04
pIC50 (IDE; [4]): 4.03

CC(C)C[C@H](NC(=O)[C@H](CO)NC(=O)[C@@H](N)CCC(N)=O)C(=O)N1CCC[C@H]1C(=O)N[C@@H](Cc1c[nH]c2ccccc12)C(=O)N[C@H]1CSSC[C@@H](C(=O)N[C@H](C(=O)N[C@H](C(=O)O)[C@@H](C)O)C(C)C)NC(=O)[C@H](Cc2c[nH]cn2)NC(=O)[C@@H]2CCCN2C(=O)[C@H](Cc2ccc(O)cc2)NC1=O [P12-3] (H-QSLPWCYPHCVT-OH; disulfide 6-10 (inferred))
remaining activity at 0.12207 µM (IDE; [2]): 106%
remaining activity at 0.488281 µM (IDE; [2]): 99.5%
remaining activity at 1.95312 µM (IDE; [2]): 95.9%
remaining activity at 7.8125 µM (IDE; [2]): 104%
remaining activity at 31.25 µM (IDE; [2]): 70.9%
remaining activity at 125 µM (IDE; [2]): 8.98%
remaining activity at 500 µM (IDE; [2]): 1.55%

VHWDFRQWWQPS [P12-1]
pKi (IDE; 4-hr incubation): 3.98
remaining activity at 0.12207 µM (IDE; [2]): 97.5%
remaining activity at 0.488281 µM (IDE; [2]): 104%
remaining activity at 1.95312 µM (IDE; [2]): 99%
remaining activity at 7.8125 µM (IDE; [2]): 73.2%
remaining activity at 31.25 µM (IDE; [2]): 42.7%
remaining activity at 125 µM (IDE; [2]): 10%
remaining activity at 500 µM (IDE; [2]): 0.247%
pIC50 (IDE; [3]): 3.81 and 3.80
pIC50 (IDE; [4]): 3.80

CC(C)C[C@H](NC(=O)[C@H](CO)NC(=O)[C@@H](N)CCC(N)=O)C(=O)N1CCC[C@H]1C(=O)N[C@@H](Cc1c[nH]c2ccccc12)C(=O)N[C@H]1CSSC[C@@H](C(=O)N[C@H](C(=O)N[C@H](C(N)=O)[C@@H](C)O)C(C)C)NC(=O)[C@H](Cc2c[nH]cn2)NC(=O)[C@@H]2CCCN2C(=O)[C@H](Cc2ccc(O)cc2)NC1=O [P12-3A] (H-QSLPWCYPHCVT-NH2; disulfide 6-10 (inferred))
hydroxyproline levels secreted into the medium ([1]; 100 μM P12-3A, 100 nM insulin, 4 days): ~ 4.6 times that secreted by untreated cells
Hydroxyproline, Mean ([1]; from standard curve, N 4): 0.989 ug/well
Hydroxyproline ([1]; from standard curve, individual replicates): 0.7793 ug/well and 1.026 ug/well and 0.6312 ug/well and 1.309 ug/well
Hydroxyproline, Normalized, Mean ([1]; normalized to control mean (1.000), N 4): 4.585
Hydroxyproline, Normalized ([1]; normalized to control mean (1.000), individual replicates): 3.613 and 4.758 and 2.926 and 6.069
Hydroxyproline quantification, OD560 ([1]; raw OD560, individual replicates): 0.849 and 1.1137 and 0.6903 and 1.4165
remaining activity at 0.12207 µM (IDE; [2]): 101%
remaining activity at 0.488281 µM (IDE; [2]): 96.2%
remaining activity at 1.95312 µM (IDE; [2]): 95.5%
remaining activity at 7.8125 µM (IDE; [2]): 93.1%
remaining activity at 31.25 µM (IDE; [2]): 87.4%
remaining activity at 125 µM (IDE; [2]): 7.45%
remaining activity at 500 µM (IDE; [2]): 0.698%

QSLPWCYP-NH2 [P12-3B]
pKi (IDE; 4-hr incubation): 4.51
remaining activity at 0.12207 µM (IDE; [2]): 101%
remaining activity at 0.488281 µM (IDE; [2]): 96.9%
remaining activity at 1.95312 µM (IDE; [2]): 101%
remaining activity at 7.8125 µM (IDE; [2]): 97%
remaining activity at 31.25 µM (IDE; [2]): 80.9%
remaining activity at 125 µM (IDE; [2]): 60.2%
remaining activity at 500 µM (IDE; [2]): 11.2%
pIC50 (IDE; [5]): 3.92
pIC50 (IDE; 0-hr incubation, mean of runs, read-out: IC50s, Mean): 4.23
pIC50 (IDE; [3]): 4.35 and 4.33
pIC50 (IDE; [4]): 4.34
